Data published in patent US20220241308A1, “NEURONAL FUNCTION MODULATING AGENT” (University of Tsukuba, priority 2019, published 2022).

Test system: MAP2K4 (mitogen-activated protein kinase 4)
Test: Gene expression experiment (real-time PCR) in SH-SY5Y cells: MAP2K4
Format: cell-based
Conditions: for expression of MAP2K4: 24 h
Description: SH-SY5Y cells were seeded in 100 mm-cell dishes (BD Biocoat) at concentrations of 3.7×10^5 cells/mL (10 mL/dish) and cultured for 24 h at 37° C. and 5% CO2. Culture medium used was F12/DMEM (Gibco) supplemented with 1% non-essential amino acids (Gibco), 15% FBS (Bio West), and 1% penicillin/streptomycin (Lonza). After 24 h, the culture medium was completely removed with an aspirator, 10 mL of culture medium Opti-MEM(Gibco) was added to each dish, and the cells were cultured for 24 h at 37° C. and 5% CO2. RNA was extracted from the culture cells and analyzed for the expression of genes described below by real-time PCR (designated as “Control” in FIGS. 2 to 8).
RNA extraction was performed using ISOGEN Reagent (Nippon Gene Co., Ltd.) in accordance with the protocol recommended by Nippo n Gene Co., Ltd. (see URL: https://www.nippongene.com/siyaku/product/extraction/tds/tds_isogen-rna-dna-protein.pdf). Real-time PCR was performed according to the protocol recommended by Thermo Fisher Scientific using a reagent kit for TaqMan Real-Time PCR (Thermo Fisher Scientific) (see URL: https://assets.thermofisher.com/TFS-Assets/LSG/manuals/4304449_TaqManPCRMM_UG.pdf).
24 h after seeding 100 mm-cell dishes (BD Biocoat) with SH-SY5Y cells, the culture medium was completely removed with an aspirator, amyloid β protein (Beta-Amyloid 1-42, AnaSpec) was mixed with Opti-MEM (Gibco) so that the final concentration was 5 μM, 10 mL of the mixture was added to each dish, the cells were cultured for 24 h at 37° C. and 5% CO2, and RNA was extracted. Except for performing the procedure described above, gene expression was analyzed as described above (designated as “Aβ” in FIGS. 2 to 8).
24 h after seeding 100 mm-cell dishes (BD Biocoat) with SH-SY5Y cells, the culture medium was completely removed with an aspirator, Sample 1 was mixed with culture medium Opti-MEM(Gibco) so that the final concentration was 12.56 μM, 9,990 μL of the mixture was added to each dish and allowed to stand for 10 min, amyloid β protein (Beta-Amyloid 1-42, AnaSpec) was mixed with Opti-MEM (Gibco) so that the final concentration was […], 10 μL of the mixture was added to each well, the cells were cultured for 24 h at 37° C. and 5% CO2, and RNA was extracted. Except for performing the procedure described above, Gene expression was analyzed as described above (designated as “Aβ+M3,5G” in FIGS. 2 to 8).
Except that Sample 2 was used instead of Sample 1, gene expression was analyzed as described above (designated as “Aβ+M” in FIGS. 2 to 8).
Except that Sample 3 was used instead of Sample 1, gene expression was analyzed as described above (designated as “Aβ+M3G” in FIGS. 2 to 8).
24 h after seeding 100 mm-cell dishes (BD Biocoat) with SH-SY5Y cells, the culture medium was completely removed with an aspirator, 10 mL of culture medium Opti-MEM(Gibco) mixed with Sample 1 was added to each dish, the cells were cultured for 24 h at 37° C. and 5% CO2, and RNA was extracted. Except for performing the procedure described above, gene expression was analyzed as described above (designated as “M3,5G” in FIGS. 2 to 8).

With `COc1cc(-c2[o+]c3cc(O)cc(OC4OC(CO)C(O)C(O)C4O)c3cc2OC2OC(CO)C(O)C(O)C2O)cc(OC)c1O` (stereo not shown) [M3,5G, Malvidin-3,5-diglucoside chloride] the “expression of MAP2K4” value (12.56 μM, amyloid β protein-treated cells, compared to “Aβ”) was “significantly high”, the “expression of MAP2K4” value (12.56 μM, amyloid β protein-treated cells, compared to “Control”) was “significantly high” and the “expression of MAP2K4” value (Sample 1 alone, no amyloid β, compared to “Control”) was “significantly increased”. For the same compound, the “activity in increasing the expression of MAP2K4” value (amyloid β protein-treated cells, 12.56 μM, ranked against malvidin and malvidin-3-glucoside) was “highest activity”.
